The source of these data is PMC8021898 (Frontiers in Pharmacology, 2021).

In brackets after ≈: the same amount, converted by molar mass. Several values for one entry are separate records, joined by “and”; a condition that tells them apart may be missing. Equal values may be shown once. Read-outs that look alike come from different tables or passages of the source. Bounds are passed on as bounds.

A word on the EC50: it is the concentration at which the effect is half-maximal. Usually Ki stands for the dissociation constant of the complex between target and ligand, obtained from inhibition or displacement. The term IC90 denotes the point of the concentration-response curve where the effect stands at 90%.

The conditions of data set [1]: for Css Free drug Concentration (mass/volume) / Css Free drug Concentration (molarity): approximately 20% protein bound.
Data set [2] concerns H2 in primary human neutrophils. To be noted: ref Reher et al., 2012, cited from earlier work.
The target in data set [3] is T1, histamine H2 receptor (Homo sapiens, UniProt P25021). To be noted: partial agonist.
The target of data set [4] is T2, H2 (Homo sapiens, UniProt P25021). Description: cell-based. The procedure:
cAMP production was determined in transiently transfected HEK293T cells ([Stauch et al., 2019]) with minor modifications. In brief, HEK293 T cells were co-transfected with H2 and GloSensor cAMP reporter DNA (Promega) overnight and plated in poly-l-lysine coated clear bottom 384-well white plate at a density of 15,000 cells/well in 40 ul of DMEM supplemented with 1% dialyzed FBS for 6 h. Medium was removed and cells were loaded with 3 mM luciferin in drug buffer (20 ul/well, 1x HBSS, 20 mM HEPES, pH 7.40) for 30 min. Test compounds were prepared in the same drug buffer supplemented with 1 mg/ml BSA and added (20 ul/well at 2x) to cells. Luminescence was counted after 20 min and results were analyzed in Prism 8.4.

A further data set deals with human sigma-2 (TMEM97) (Homo sapiens, UniProt Q5BJF2). To be noted: concentrations up to 10 μM. The procedure: Sigma-2 competition curves were performed in a similar manner, using Expi293 cells overexpressing the human sigma-2 (TMEM97) and using [^3H] DTG as the radioactive probe.
The next data set has as its system human skin mast cells. To be noted: 10 μM pre-incubation; ref Lippert et al., 2004; cited from earlier work.
Another data set deals with human sigma-1 receptor (Homo sapiens, UniProt Q99720). To be noted: concentrations up to 10 μM. The procedure: All reactions were performed in triplicate using a 96-well block. […] Data were analyzed using GraphPad Prism software.
Data set [5] relates to hospitalized COVID-19 patients. To be noted: ref Cheung et al., 2020, Shoaibi et al., Yeramaneni et al.; cited from earlier work.
Data set [6] concerns H2 in primary human neutrophils. Particulars: ref Reher et al., 2012, cited from earlier work. The source holds these as a separate data set.
Another data set concerns 318 known human GPCRs. To be noted: 10 microM final; threshold >3x basal; follow up studies. The procedure:
(§1) Human G-coupled Protein Receptor genome (GPCRome) screening was carried out according to published procedure ([Kroeze et al., 2015]) with minor modifications. In brief, HTLA cells were subcultured into poly-L-lysine coated clear bottom 384-well white plates at a density of 6,000 cells/well in 40 ul of DMEM supplemented with 1% dialyzed FBS for overnight, transfected with 20 ng/well Tango constructs for 24 h, received drug stimulation (10 uM final) for another 24 h. Medium and drug solutions were removed and Bright-Glo Reagents (Promega) were added for luminescence counting. For concentration response assays, HTLA cells were transfected with Tango constructs for 24 h, plated in poly-L-Lysine coated clear bottom 384-well white plates at a density of 10,000 cells/well in 40 ul of DMEM supplemented with 1% dialyzed FBS for 6 h before receiving drugs for overnight stimulation. Plates were then counted as above.

The next data set concerns the target bradykinin receptor B1 (Homo sapiens, UniProt P46663). Particulars: quadruplicate replicate. The procedure: as §1
The target of the next data set is bradykinin receptor B2 (Homo sapiens, UniProt P30411). Particulars: quadruplicate replicate. The procedure:
as §1

In data set [7] the target is histamine H2 receptor. Particulars: cited from earlier work.
The next data set in a line: in vitro. Particulars: African green monkey.
Data set [8] has as its target T2, H2. Nature of the data set: biochemical. Particulars: affinity (Ki) for histamine H2 receptor. The procedure:
Radioligand binding assays with human histamine receptors. Radioligand binding assays with human H1, H2, H3, and H4 receptors were conducted according to the NIMH PDSP assay protocol (https://pdsp.unc.edu/pdspweb/?site=assays) and published procedures ([Besnard et al., 2012]).

Data set [9] concerns the target T1, histamine H2 receptor. Description: cell-based.
For data set [10], the system named is H2 in primary human eosinophils. To be noted: ref Reher et al., 2012, cited from earlier work.
The test system of the next data set is COVID-19 patient. Particulars: one patient, 60 mg p.o. t.i.d. for 30 days, started day 8 of symptoms; anecdotal.
In the next data set the test system is SARS-CoV-2. Nature of the data set: microbe, parasite or virus in culture. The data set is classed as cell-based. Particulars: for IC50: read-out: Antiviral: IC50; for IC90: read-out: Antiviral: IC90; for inhibition of SARS-CoV-2 infection: Vero E6 cell-based assay.
Another data set relates to Vero E6 cells. Nature of the data set: MTT cytotoxicity assay in uninfected Vero E6 cells. Particulars: uninfected Vero E6, MTT. A general note: Tetrazolium assays rely on reduction of a dye to a coloured formazan, in cell work by metabolically active cells.
Data set [11] can be described thus: MTT cytotoxicity assay in uninfected Vero E6 cells. To be noted: African green monkey, uninfected Vero E6 cells.
The mark [12] stands for this setting: Severe acute respiratory syndrome coronavirus 2, Vero C1008, Vero E6, 48 h, MOI 0.025.
Where [13] appears, read: 40 mg tablet p.o. t.i.d., pK data reported by Lin et al. (1987).
[14] abbreviates: 40 mg tablet p.o. t.i.d., pK data reported by Yeh et al. (1987).
Setting [15] is: Severe acute respiratory syndrome coronavirus 2, Vero C1008, 48 h.

T2 sequence (P25021 whole entry): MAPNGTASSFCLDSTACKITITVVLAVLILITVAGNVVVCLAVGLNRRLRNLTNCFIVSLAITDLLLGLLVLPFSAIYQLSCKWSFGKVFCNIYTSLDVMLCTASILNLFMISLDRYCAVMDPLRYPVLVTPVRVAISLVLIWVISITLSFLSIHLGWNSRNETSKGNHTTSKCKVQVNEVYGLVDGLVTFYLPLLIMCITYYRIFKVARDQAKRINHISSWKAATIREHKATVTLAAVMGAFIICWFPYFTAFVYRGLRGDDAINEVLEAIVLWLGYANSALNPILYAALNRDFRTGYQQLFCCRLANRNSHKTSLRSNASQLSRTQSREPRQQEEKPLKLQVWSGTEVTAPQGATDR
T1 sequence (P25021 whole entry): as above
Sequence of bradykinin receptor B2 (P30411 whole entry): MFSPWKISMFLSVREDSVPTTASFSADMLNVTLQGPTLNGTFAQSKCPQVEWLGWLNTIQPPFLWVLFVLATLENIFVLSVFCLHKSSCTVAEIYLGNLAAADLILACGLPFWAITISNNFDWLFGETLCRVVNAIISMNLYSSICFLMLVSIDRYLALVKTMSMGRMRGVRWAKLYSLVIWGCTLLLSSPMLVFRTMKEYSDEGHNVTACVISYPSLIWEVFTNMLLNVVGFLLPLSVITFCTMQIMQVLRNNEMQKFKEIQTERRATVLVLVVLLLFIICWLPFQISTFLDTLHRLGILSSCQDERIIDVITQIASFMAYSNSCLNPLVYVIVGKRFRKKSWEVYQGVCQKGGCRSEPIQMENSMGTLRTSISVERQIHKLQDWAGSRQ
Sequence of human sigma-1 receptor (Q99720 whole entry): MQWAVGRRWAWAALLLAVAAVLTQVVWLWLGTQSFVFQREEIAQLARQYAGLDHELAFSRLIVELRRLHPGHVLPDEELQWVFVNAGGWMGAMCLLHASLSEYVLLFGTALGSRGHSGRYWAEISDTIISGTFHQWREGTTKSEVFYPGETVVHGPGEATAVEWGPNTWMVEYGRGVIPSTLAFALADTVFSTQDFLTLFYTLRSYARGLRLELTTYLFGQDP
Sequence of human sigma-2 (TMEM97) (Q5BJF2 whole entry): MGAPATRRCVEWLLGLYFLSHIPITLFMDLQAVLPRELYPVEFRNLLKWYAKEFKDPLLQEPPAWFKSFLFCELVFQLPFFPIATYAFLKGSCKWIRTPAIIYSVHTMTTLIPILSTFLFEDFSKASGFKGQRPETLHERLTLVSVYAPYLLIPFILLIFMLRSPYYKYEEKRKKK
Sequence of bradykinin receptor B1 (P46663 whole entry): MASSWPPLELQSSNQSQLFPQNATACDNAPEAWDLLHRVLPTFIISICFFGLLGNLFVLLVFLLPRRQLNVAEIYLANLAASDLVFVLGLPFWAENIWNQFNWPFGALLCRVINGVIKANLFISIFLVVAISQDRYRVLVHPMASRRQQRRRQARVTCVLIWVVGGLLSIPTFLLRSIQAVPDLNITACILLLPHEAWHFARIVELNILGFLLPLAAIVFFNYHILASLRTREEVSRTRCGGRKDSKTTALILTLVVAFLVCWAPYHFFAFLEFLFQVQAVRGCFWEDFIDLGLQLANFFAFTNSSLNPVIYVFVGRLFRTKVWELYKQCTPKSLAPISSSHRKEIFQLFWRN

Turning to `CN/C(=N/CCSCc1nc[nH]c1C)NC#N` [Cimetidine], the “Css Free drug Concentration (mass/volume)” value in data set [1] (200 mg tablet p.o. q.d.) amounted to 140 µg/L. In addition, in data set [1] (300 mg tablet p.o. q.d.), the “Css Free drug Concentration (mass/volume)” value was 180.1 µg/L and the “Css Free drug Concentration (molarity)” value was 720 nM.
As for `NC(N)=Nc1nc(CSCCC(N)=NS(N)(=O)=O)cs1` [Famotidine], the IC50 in [2] (read-out: IC50 Neutrophil H2 cAMP assay, Concentration (molarity)) is 24 nM; in data set [6] (read-out: IC50 Neutrophil H2 O2- assay, Concentration (molarity)) it was 201 nM; at histamine H2 receptor [7] (read-out: IC50 Histamine H2, Concentration (molarity), ref Lin et al., 1987, 1991), 39 nM; in data set [10] (read-out: IC50 Eosinophil H2 cAMP assay, Concentration (molarity)), 158 nM; in the data set on SARS-CoV-2 (setting [12]), > 100000 nM. The “IC50 Neutrophil H2 cAMP assay, Concentration (mass/volume)” value in data set [2] is 0.008 µg/mL (≈ 0.0237 µM). For the same compound, the arrestin recruitment efficacy entry on histamine H2 receptor [3] is recorded as “about 15 % that of histamine”. Further, the figures for the EC50 on H2 [4] and at histamine H2 receptor [9] were 33 nM and 105 nM, respectively. For the same compound, on H2 [4] (Figure 4B), the “activity on H2 in the presence of histamine” value was “antagonist activity”. For the same compound, the “inverse agonist activity, reduction of basal activity” value on H2 [4] (cAMP, H2) came out at 75%. For the same compound, the “displacement of radioligand probe, sigma-2” value on human sigma-2 (TMEM97) is “no detectable displacement”. Besides, the “effect on histamine-induced cAMP increase” value in the data set on human skin mast cells is listed as “blocks histamine-induced cAMP increase”. The “displacement of radioligand probe, sigma-1” value on human sigma-1 receptor is given as “no detectable displacement”. In addition, in data set [5], the “effect in more recent retrospective studies” value is reported as “no effect”. In data set [6], the “IC50 Neutrophil H2 O2- assay, Concentration (mass/volume)” value is 0.067 µg/mL (≈ 0.199 µM). In addition, the “agonist activity at GPCRs other than H2” value in the data set on 318 known human GPCRs is on record as “no agonist activity”. The “activation of bradykinin receptor B1” value at bradykinin receptor B1 is listed as “no activation”. At bradykinin receptor B2, the “activation of bradykinin receptor B2” value was “no activation”. Moreover, at histamine H2 receptor [7] (ref Lin et al., 1987, 1991), the “IC50 Histamine H2, Concentration (mass/volume)” value is 0.013 µg/mL (≈ 0.0385 µM). Moreover, the CC50 in the data set “in vitro” is > 100000 nM. Moreover, the Ki at H2 [8] was ~14 nM and 14 nM. In data set [10], the “IC50 Eosinophil H2 cAMP assay, Concentration (mass/volume)” value is 0.0536 µg/mL (≈ 0.159 µM). In addition, the “clinical symptoms after initiating treatment” value in the data set with COVID-19 patient was “relief of symptoms overnight”. Besides, in the data set on SARS-CoV-2 (setting [12]), the IC90 was > 100000 nM. Besides, the “inhibition of SARS-CoV-2 infection” value in the data set on SARS-CoV-2 is given as “no inhibition”. For the same compound, the “Css Free drug Concentration (mass/volume)” value came to 29.4 µg/L in data set [1] (20 mg capsule p.o. b.i.d.); 14.7 µg/L in data set [1] (20 mg capsule p.o. q.d.); 44.2 µg/L in data set [1] (20 mg capsule p.o. t.i.d.); 28.3 µg/L in data set [1] (20 mg tablet p.o. b.i.d.); 14.2 µg/L in [1] (20 mg tablet p.o. q.d.); 42.5 µg/L in [1] (20 mg tablet p.o. t.i.d.). Besides, the “Css Free drug Concentration (mass/volume)” value in data set [1] (setting [13]) was 44.3 µg/L; in [1] (setting [14]), 64.6 µg/L; in [1] (60 mg tablet p.o. t.i.d.), 115.4 µg/L; in data set [1] (120 mg IV every 8 h) it was 1,032 μg/l. For the same compound, the “Css Free drug Concentration (molarity)” value in data set [1] (20 mg capsule p.o. b.i.d.) turned out to be 87 nM; in data set [1] (20 mg capsule p.o. q.d.), 44 nM; in [1] (20 mg capsule p.o. t.i.d.), 131 nM; in data set [1] (20 mg tablet p.o. b.i.d.) it was 84 nM; in data set [1] (20 mg tablet p.o. q.d.), 42 nM; in [1] (20 mg tablet p.o. t.i.d.), 126 nM. The “Css Free drug Concentration (molarity)” value in [1] (setting [13]) was determined as 131 nM; in [1] (setting [14]), 192 nM; in data set [1] (60 mg tablet p.o. t.i.d.), 340 nM; in [1] (120 mg IV every 8 h), 874 nM. The “Css Total Concentration (mass/volume)” value in data set [1] (20 mg tablet p.o. q.d.) was 53 nM.
Turning to `CCN(CCO)CCCC(C)Nc1ccnc2cc(Cl)ccc12` (stereo not shown) [Hydroxychloroquine], the “Cytotoxicity: CC10” value with Vero E6 cells worked out at 216 nM. Also, the CC50 at 48 h in data set [11] is > 20000 nM. Further, in the data set with SARS-CoV-2 (setting [15]), the IC50 is 1440 nM and the IC90 turned out to be 3470 nM. The “inhibition of SARS-CoV-2 infection” value with SARS-CoV-2 is reported as “demonstrated antiviral activity”.
As for `CCC(CC)COC(=O)[C@H](C)N[P@](=O)(OC[C@H]1O[C@@](C#N)(c2ccc3c(N)ncnn23)[C@H](O)[C@@H]1O)Oc1ccccc1` [Remdesivir], the “Cytotoxicity: CC10” value in the data set with Vero E6 cells was > 20000 nM. The CC50 in the data set “in vitro” is > 20000 nM. In addition, in the data set on SARS-CoV-2 (setting [15]), the IC50 was 966 nM and the IC90 is 1770 nM. In the data set with SARS-CoV-2, the “inhibition of SARS-CoV-2 infection” value was “demonstrated antiviral activity”.
Consider `NCCc1c[nH]cn1` [histamine], for which the “stimulation of cAMP production” value at H2 [4] (N = 2) is 20 fold of basal.
